The source of these data is patent US9834565B2, “Tricyclic heterocycles as bet protein inhibitors” (Incyte Corporation, priority 2014, dated 2017).

For assay [1], the target named is BRD4-BD1 (Homo sapiens (Human), UniProt O60885). The experiment in a line: BRD4-BD1 AlphaScreen assay. The class given is binding. As to conditions: H4Ac4 peptide, read-out: BRD4 BD-1 enzyme IC50. The method, then: (§1) BRD4-BD1 and BRD4-BD2 assays were conducted in white 384-well polystyrene plate in a final volume of 20 μL for BD1 and 40 μL for BD2. Inhibitors were first serially diluted in DMSO and added to the plate wells before the addition of other reaction components. […] After plate sealing, the plate was incubated in the dark at room temperature for 75 min. before reading on a PHERAstar FS plate reader (BMG Labtech). IC50 determination was performed by fitting the curve of percent control activity versus the log of the inhibitor concentration using the GraphPad Prism 5.0 software.

In assay [2] the target is BRD4-BD2 (Homo sapiens (Human), UniProt O60885). As to the kind of experiment: BRD4-BD2 AlphaScreen assay. Format: binding. As to conditions: H4Ac4 peptide, read-out: BRD4 BD-2 enzyme IC50. The method, then:
as §1

As to `CC(=O)N1C[C@@H](C)N(c2nc3ccc(-c4c(C)noc4C)c4c3n2[C@@H](c2ccccn2)CO4)[C@@H](C)C1` (atropisomer, axis not shown) [Example 2, (4S)-2-[(2R,6S)-4-Acetyl-2,6-dimethylpiperazin-1-yl]-7-(3,5-dimethylisoxazol-4-yl)-4-pyridin-2-yl-4,5-dihydroimidazo[1,5,4-de][1,4]benzoxazine], the IC50 in assay [1] and in assay [2] was under 25 nM throughout.

Consider `Cc1noc(C)c1-c1ccc2nc(N3CCN(C(=O)C(C)C)CC3)n3c2c1OC[C@@H]3c1ccccn1` [Example 1, (4S)-7-(3,5-Dimethylisoxazol-4-yl)-2-(4-isobutyrylpiperazin-1-yl)-4-pyridin-2-yl-4,5-dihydroimidazo[1,5,4-de][1,4]benzoxazine], for which the IC50 in assay [1] and in assay [2] was under 25 nM each time.

With `CC(=O)N1CCN(c2nc3ccc(-c4c(C)noc4C)c4c3n2[C@@H](c2ccccn2)CO4)[C@@H](C)C1` [Example 3, (4S)-2-[(2S)-4-acetyl-2-methylpiperazin-1-yl]-7-(3,5-dimethylisoxazol-4-yl)-4-pyridin-2-yl-4,5-dihydroimidazo[1,5,4-de][1,4] benzoxazine], the IC50 was 25 to 100 nM in assay [1] and under 25 nM in assay [2].

As for `CC(=O)N1CC2CC1CN2c1nc2ccc(-c3c(C)noc3C)c3c2n1[C@@H](c1ccccn1)CO3` (stereo partly drawn) [Example 4, (4S)-2-(5-acetyl-2,5-diazabicyclo[2.2.1]hept-2-yl)-7-(3,5-dimethylisoxazol-4-yl)-4-pyridin-2-yl-4,5-dihydroimidazo[1,5,4-de][1,4]benzoxazine], the IC50 in assay [1] and in assay [2] was under 25 nM in each case.

With `CC(=O)NC1(C)CCN(c2nc3ccc(-c4c(C)noc4C)c4c3n2[C@@H](c2ccccn2)CO4)CC1` [Example 5, N-{1-[(4S)-7-(3,5-dimethylisoxazol-4-yl)-4-pyridin-2-yl-4,5-dihydroimidazo[1,5,4-de][1,4]benzoxazin-2-yl]-4-methylpiperidin-4-yl}acetamide], the values for the IC50 in assay [1] and in assay [2] were 25 to 100 nM and under 25 nM, respectively.

Turning to `CCC(=O)N1CCN(c2nc3ccc(-c4c(C)noc4C)c4c3n2[C@@H](c2ccccn2)CO4)C[C@@H]1C` [Example 8, (4S)-7-(3,5-dimethylisoxazol-4-yl)-2-[(3S)-3-methyl-4-propionylpiperazin-1-yl]-4-pyridin-2-yl-4,5-dihydroimidazo[1,5,4-de][1,4]benzoxazine], the IC50 in assay [1] and in assay [2] was under 25 nM in each case.

Take `Cc1noc(C)c1-c1ccc2nc(N3CCN(C(=O)C(C)C)[C@@H](C)C3)n3c2c1OC[C@@H]3c1ccccn1` [Example 9, (4S)-7-(3,5-dimethylisoxazol-4-yl)-2-[(3S)-4-isobutyryl-3-methylpiperazin-1-yl]-4-pyridin-2-yl-4,5-dihydroimidazo[1,5,4-de][1,4]benzoxazine]: the IC50 in assay [1] and in assay [2] was under 25 nM throughout.

`CCCC(=O)NC1CCN(c2nc3ccc(-c4c(C)noc4C)c4c3n2[C@@H](c2ccccn2)CO4)CC1` [Example 10, N-{1-[(4S)-7-(3,5-dimethylisoxazol-4-yl)-4-pyridin-2-yl-4,5-dihydroimidazo[1,5,4-de][1,4]benzoxazin-2-yl]piperidin-4-yl}butanamide]: the IC50 in assay [1] and in assay [2] was under 25 nM in each case.

On to `Cc1noc(C)c1-c1ccc2nc(N3CCC(NC(=O)C(C)(C)C)CC3)n3c2c1OC[C@@H]3c1ccccn1` [Example 11, N-{1-[(4S)-7-(3,5-dimethylisoxazol-4-yl)-4-pyridin-2-yl-4,5-dihydroimidazo[1,5,4-de][1,4]benzoxazin-2-yl]piperidin-4-yl}-2,2-dimethylpropanamide], for which the IC50 in assay [1] and in assay [2] was under 25 nM in each case.

Regarding `Cc1noc(C)c1-c1ccc2nc(N3CCC(NC(=O)C4CCC4)CC3)n3c2c1OC[C@@H]3c1ccccn1` [Example 13, N-{1-[(4S)-7-(3,5-dimethylisoxazol-4-yl)-4-pyridin-2-yl-4,5-dihydroimidazo[1,5,4-de][1,4]benzoxazin-2-yl]piperidin-4-yl}cyclobutanecarboxamide], the IC50 in assay [1] and in assay [2] was under 25 nM each time.

In the case of `CCC(=O)N(C)C1CCN(c2nc3ccc(-c4c(C)noc4C)c4c3n2[C@@H](c2ccccn2)CO4)CC1` [Example 15, N-{1-[(4S)-7-(3,5-dimethylisoxazol-4-yl)-4-pyridin-2-yl-4,5-dihydroimidazo[1,5,4-de][1,4]benzoxazin-2-yl]piperidin-4-yl}-N-methylpropanamide], the IC50 in assay [1] and in assay [2] was under 25 nM in each case.

For `CCCC(=O)N(C)C1CCN(c2nc3ccc(-c4c(C)noc4C)c4c3n2[C@@H](c2ccccn2)CO4)CC1` [Example 16, N-{1-[(4S)-7-(3,5-dimethylisoxazol-4-yl)-4-pyridin-2-yl-4,5-dihydroimidazo[1,5,4-de][1,4]benzoxazin-2-yl]piperidin-4-yl}-N-methylbutanamide], the IC50 in assay [1] and in assay [2] was under 25 nM throughout.

As to `Cc1noc(C)c1-c1ccc2nc(N3CCC(N(C)C(=O)C(C)C)CC3)n3c2c1OC[C@@H]3c1ccccn1` [Example 17, N-{1-[(4S)-7-(3,5-dimethylisoxazol-4-yl)-4-pyridin-2-yl-4,5-dihydroimidazo[1,5,4-de][1,4]benzoxazin-2-yl]piperidin-4-yl}-N,2-dimethylpropanamide], the IC50 in assay [1] and in assay [2] was under 25 nM in each case.

Take `Cc1noc(C)c1-c1ccc2nc(N3CCC(N(C)C(=O)C(C)(C)C)CC3)n3c2c1OC[C@@H]3c1ccccn1` [Example 18, N-{1-[(4S)-7-(3,5-dimethylisoxazol-4-yl)-4-pyridin-2-yl-4,5-dihydroimidazo[1,5,4-de][1,4]benzoxazin-2-yl]piperidin-4-yl}-N,2,2-trimethylpropanamide]: the IC50 in assay [1] and in assay [2] was under 25 nM each time.

On to `Cc1noc(C)c1-c1ccc2nc(N3CCC(N(C)C(=O)C4CC4)CC3)n3c2c1OC[C@@H]3c1ccccn1` [Example 19, N-{1-[(4S)-7-(3,5-dimethylisoxazol-4-yl)-4-pyridin-2-yl-4,5-dihydroimidazo[1,5,4-de][1,4]benzoxazin-2-yl]piperidin-4-yl}-N-methylcyclopropanecarboxamide], for which the IC50 in assay [1] and in assay [2] was under 25 nM throughout.

In the case of `Cc1noc(C)c1-c1ccc2nc(N3CCC(N(C)C(=O)C4CCC4)CC3)n3c2c1OC[C@@H]3c1ccccn1` [Example 20, N-{1-[(4S)-7-(3,5-dimethylisoxazol-4-yl)-4-pyridin-2-yl-4,5-dihydroimidazo[1,5,4-de][1,4]benzoxazin-2-yl]piperidin-4-yl}-N-methylcyclobutanecarboxamide], the half-maximal inhibitory concentration (IC50) in assay [1] and in assay [2] was under 25 nM in each case.

For the compound `CCS(=O)(=O)N(C)C1CCN(c2nc3ccc(-c4c(C)noc4C)c4c3n2[C@@H](c2ccccn2)CO4)CC1` [Example 23, N-{1-[(4S)-7-(3,5-dimethylisoxazol-4-yl)-4-pyridin-2-yl-4,5-dihydroimidazo[1,5,4-de][1,4]benzoxazin-2-yl]piperidin-4-yl}-N-methylethanesulfonamide], the IC50 in assay [1] and in assay [2] was under 25 nM each time.

Consider `Cc1noc(C)c1-c1ccc2nc(N3CCC(N(C)S(=O)(=O)C4CC4)CC3)n3c2c1OC[C@@H]3c1ccccn1` [Example 24, N-{1-[(4S)-7-(3,5-dimethylisoxazol-4-yl)-4-pyridin-2-yl-4,5-dihydroimidazo[1,5,4-de][1,4]benzoxazin-2-yl]piperidin-4-yl}-N-methylcyclopropanesulfonamide], for which the IC50 in assay [1] and in assay [2] was under 25 nM in each case.

With `CCCC(=O)N1CCN(c2nc3ccc(-c4c(C)noc4C)c4c3n2[C@@H](c2ccccn2)CO4)CC1` [Example 25, (4S)-2-(4-butyrylpiperazin-1-yl)-7-(3,5-dimethylisoxazol-4-yl)-4-pyridin-2-yl-4,5-dihydroimidazo[1,5,4-de][1,4]benzoxazine], the IC50 in assay [1] and in assay [2] was under 25 nM in each case.

As to `Cc1noc(C)c1-c1ccc2nc(N3CCN(C(=O)C(C)(C)C)CC3)n3c2c1OC[C@@H]3c1ccccn1` [Example 26, (4S)-7-(3,5-dimethylisoxazol-4-yl)-2-[4-(2,2-dimethylpropanoyl)piperazin-1-yl]-4-pyridin-2-yl-4,5-dihydroimidazo[1,5,4-de][1,4]benzoxazine], the IC50 in assay [1] and in assay [2] was under 25 nM in each case.

As to `Cc1noc(C)c1-c1ccc2nc(N3CCN(C(=O)C4CCC4)CC3)n3c2c1OC[C@@H]3c1ccccn1` [Example 28, (4S)-2-[4-(cyclobutylcarbonyl)piperazin-1-yl]-7-(3,5-dimethylisoxazol-4-yl)-4-pyridin-2-yl-4,5-dihydroimidazo[1,5,4-de][1,4]benzoxazine], the IC50 in assay [1] and in assay [2] was under 25 nM throughout.

Turning to `COCC(=O)N1CCN(c2nc3ccc(-c4c(C)noc4C)c4c3n2[C@@H](c2ccccn2)CO4)CC1` [Example 29, (4S)-7-(3,5-dimethylisoxazol-4-yl)-2-[4-(methoxyacetyl)piperazin-1-yl]-4-pyridin-2-yl-4,5-dihydroimidazo[1,5,4-de][1,4]benzoxazine], the IC50 in assay [1] and in assay [2] was under 25 nM throughout.
